Test results: patent US12637703B2, “Compositions and methods for detection of oxidizable analytes” (President and Fellows of Harvard College, priority 2019, dated 2026)

What was measured:
[1] = target: T1, horseradish peroxidase (HRP) (Armoracia rusticana, UniProt P00433); assay: Screening of NIR dye library for HRP substrates (hydrogen peroxide-dependent loss of fluorescence); type: biochemical; details: for enzymatic oxidation by HRP, positive controls of the library screening: known HRP substrates, homovanillic acid 0.99 mM, HRP 0.10 U/mL, 10 min, Amplex Red 30 min, room temperature; for oxidation by HRP (loss of fluorescence) at different hydrogen peroxide concentrations: NIR dye 2.5 μM, HRP 105 mU/mL, phosphate buffer 50 mM pH 7.5; for oxidation by HRP (loss of fluorescence) at different hydrogen peroxide concentrations / hydrogen peroxide sensing profile (loss in relative fluorescence intensity): 10 min room temperature; for hydrogen peroxide sensing profile (loss in relative fluorescence intensity): different dye concentrations, HRP-containing buffer pH 7.5
T1 construct: purchased Thermo Fisher Scientific A22188
T1 sequence (P00433 31-338): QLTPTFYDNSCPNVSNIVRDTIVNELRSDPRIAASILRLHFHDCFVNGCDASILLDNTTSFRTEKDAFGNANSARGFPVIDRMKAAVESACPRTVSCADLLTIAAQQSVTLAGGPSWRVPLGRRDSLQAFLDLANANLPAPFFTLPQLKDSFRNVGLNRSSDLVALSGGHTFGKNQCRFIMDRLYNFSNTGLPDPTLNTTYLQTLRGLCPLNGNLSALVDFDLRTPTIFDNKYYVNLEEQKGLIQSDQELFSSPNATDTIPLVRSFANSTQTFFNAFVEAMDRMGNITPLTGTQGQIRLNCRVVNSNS
Method: FIGS. 2A-2C are related to screening of near-infrared (NIR) dye library for HRP substrates. NIR dye concentration: 2.5 μM; HRP concentration: 105 mU/mL; buffer composition: phosphate buffer 50 mM at pH 7.5; 10 min incubation time at room temperature. All results as means+SD (n=3).
FIG. 2E is a graph showing the relative fluorescence intensity of a homovanillic acid-containing solution in the presence of hydrogen peroxide and HRP, therefore evaluating hydrogen peroxide sensing with homovanillic acid (a known substrate of HRP) and HRP. HRP catalyzes the dimerization of homovanillic acid to a fluorescent product in the presence of hydrogen peroxide. HRP concentration: 0.10 U/mL; homovanillic acid: 0.99 mM; λex 312 nm; λem 430 nm; incubation time 10 min at room temperature. All results as mean±SD (n=3).
FIG. 2F is a graph showing the relative fluorescence intensity of an Amplex Red®-containing solution in the presence of hydrogen peroxide and HRP, therefore evaluating hydrogen peroxide sensing with Amplex Red® (a known substrate of HRP) and HRP. HRP catalyzes the oxidation of Amplex Red® to the fluorescent product resorufin in the presence of hydrogen peroxide. Excitation/emission wavelengths: λex 530 nm; λem 590 nm; incubation time 30 min at room temperature. Assay conducted in accordance to manufacturer's instructions. All results as mean±SD (n=3).
FIGS. 3B-3E are related to hydrogen peroxide sensing using HRP-mediated S7 oxidation. NIR dye concentration unless stated: 10 μM (FIG. 3C), 7.5 μM (FIG. 3D); HRP concentration: 105 mU/mL (FIG. 3B); buffer composition: phosphate buffer 50 mM at pH 7.5; 10 (FIGS. 3B, 3D) or 30 min (FIG. 3E) incubation time at room temperature. […] All results as means+SD (n=3).
(§1) NIR dyes were dissolved in water (sulfo-cyanine dyes, Lumiprobe, Hannover, Germany, and all investigated IRDyes except for IRDye 800RS, LI-COR Biosciences, Lincoln, NE) or dimethyl sulfoxide (Sigma Aldrich, St. Louis, MO; cyanine dyes, Lumiprobe, and IRDye 80016, LI-COR Biosciences). 10 μL of dye solution (final 2.5 μM) were added to 100 uL of HRP solution (final 105 mU/mL) and hydrogen peroxide standards (both from Amplex™ Red Hydrogen Peroxide/Peroxidase Assay Kit A22188, Thermo Fisher Scientific, Waltham, MA) in sodium chloride-containing phosphate buffer (Sigma Aldrich) 50 mM at pH 7.5 at 300 mOsmol/kg and protected from light. After 10 min at room temperature, the fluorescence intensity was determined by a plate reader (BioTek NEO2, BioTek, Winooski, VT) at the fluorescence excitation and emission wavelength provided by the manufacturer.
To determine the absorbance spectra of S7, 10 μL of dye solution (final 7.5 μM) were added to 100 μL of HRP solution (final 105 mU/mL) and hydrogen peroxide standards in isotonic phosphate buffer 50 mM at pH 7.5. After 15 min, the absorbance spectra were recorded by a plate reader (BioTek NEO2).

[2] = Fluorescence of dyes with hydrogen peroxide in HRP-free buffer; type: physicochemical; details: 400-fold molar excess of hydrogen peroxide
Method: as §1, with “([…]” for “(final 2.5 μM) were added to 100 uL of HRP solution (final 105 mU/mL) and hydrogen peroxide standards (both from Amplex™ Red Hydrogen”

[3] = Superoxide testing (SOTS-1 as superoxide radical source); type: physicochemical; details: 100-fold excess of superoxide radical (SOTS-1); 30 min room temperature; pH 7.5
Method: FIG. 3E is a graph showing the relative fluorescence intensity of several NIR dyes and the superoxide-sensitive dye DHE (positive control) at different concentrations of the superoxide radical source SOTS-1 (E).
Superoxide was generated in accordance with the literature. In brief, SOTS-1 (Cayman Chemicals, Ann Arbor, MI) was dissolved in dimethylformamide (Sigma Aldrich) and added to a near-infrared fluorescent dye-containing ([…]; DHE concentration 10 μM) isotonic phosphate buffer 50 mM at pH 7.5 ([…]) and protected from light. After 30 min at room temperature, the fluorescence intensity was determined by a plate reader (BioTek NEO2) at the fluorescence excitation and emission wavelength provided by the manufacturer.

Compound: CC(=O)N1c2ccc(O)cc2Oc2cc(O)ccc21 [Amplex Red®]
- enzymatic oxidation by HRP, positive controls of the library screening [1]: enzymatically oxidized in a hydrogen peroxide-dependent manner

Compound: CC1(C)C(/C=C/C=C/C=C/C=C2\N(CCCCS(=O)(=O)O)c3ccc4ccccc4c3C2(C)C)=[N+](CCCCS(=O)(=O)[O-])c2ccc3ccccc3c21 [ICG, indocyanine green]
- fluorescence properties upon exposure to hydrogen peroxide without HRP [2]: preserved their fluorescence properties
- oxidation by HRP (loss of fluorescence) at different hydrogen peroxide concentrations [1]: oxidized by HRP in a hydrogen peroxide concentration-dependent manner
- hydrogen peroxide sensing profile (loss in relative fluorescence intensity) [1]: linear hydrogen peroxide sensing profile

Compound: COc1cc(CC(=O)O)ccc1O [homovanillic acid]
- enzymatic oxidation by HRP, positive controls of the library screening [1]: enzymatically oxidized in a hydrogen peroxide-dependent manner

Compound: CN1/C(=C/C=C/C=C/C2=[N+](CCCCCC(=O)O)c3ccc(S(=O)(=O)O)cc3C2(C)C)C(C)(C)c2cc(S(=O)(=O)O)ccc21 [sulfo-cyanine 5]
- fluorescence emission in the presence of superoxide radical [3]: preserved their fluorescence emission

Compound: sulfo-cyanine 7 [S7]
- fluorescence properties upon exposure to hydrogen peroxide without HRP [2]: preserved their fluorescence properties
- fluorescence emission in the presence of superoxide radical [3]: preserved their fluorescence emission
- oxidation by HRP (loss of fluorescence) at different hydrogen peroxide concentrations [1]: oxidized by HRP in a hydrogen peroxide concentration-dependent manner
- hydrogen peroxide sensing profile (loss in relative fluorescence intensity) [1]: followed a sigmoid curve
